Experimental data published in ChEMBL document CHEMBL1201862, “PubChem BioAssay data set” (2004).
Activity calls are given as the source filed them.

Assays:
[1] = molecular target: T1, Low molecular weight phosphotyrosine protein phosphatase (Homo sapiens, UniProt P24666); assay type: functional; details: read-out: IC50_Mean;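 note: Dose-response confirmation assay measuring inhibition of LMPTP enzyme activity by fluorescence intensity read-out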
T1 sequence (P24666 whole entry): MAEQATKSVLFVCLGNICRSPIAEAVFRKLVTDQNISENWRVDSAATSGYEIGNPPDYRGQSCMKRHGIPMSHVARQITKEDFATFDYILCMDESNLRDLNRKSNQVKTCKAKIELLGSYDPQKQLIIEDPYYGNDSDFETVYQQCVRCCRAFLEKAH

[2] = viability loss in HepG2 liver cells – cell-based, ATP luminescence, cherry-pick, set 6, cytotoxicity control, dose response (AID 1053125); assay type: functional
[3] = molecular target: T2, Apoptotic protease-activating factor 1 (Homo sapiens, UniProt O14727); assay type: functional
T2 sequence (O14727 whole entry): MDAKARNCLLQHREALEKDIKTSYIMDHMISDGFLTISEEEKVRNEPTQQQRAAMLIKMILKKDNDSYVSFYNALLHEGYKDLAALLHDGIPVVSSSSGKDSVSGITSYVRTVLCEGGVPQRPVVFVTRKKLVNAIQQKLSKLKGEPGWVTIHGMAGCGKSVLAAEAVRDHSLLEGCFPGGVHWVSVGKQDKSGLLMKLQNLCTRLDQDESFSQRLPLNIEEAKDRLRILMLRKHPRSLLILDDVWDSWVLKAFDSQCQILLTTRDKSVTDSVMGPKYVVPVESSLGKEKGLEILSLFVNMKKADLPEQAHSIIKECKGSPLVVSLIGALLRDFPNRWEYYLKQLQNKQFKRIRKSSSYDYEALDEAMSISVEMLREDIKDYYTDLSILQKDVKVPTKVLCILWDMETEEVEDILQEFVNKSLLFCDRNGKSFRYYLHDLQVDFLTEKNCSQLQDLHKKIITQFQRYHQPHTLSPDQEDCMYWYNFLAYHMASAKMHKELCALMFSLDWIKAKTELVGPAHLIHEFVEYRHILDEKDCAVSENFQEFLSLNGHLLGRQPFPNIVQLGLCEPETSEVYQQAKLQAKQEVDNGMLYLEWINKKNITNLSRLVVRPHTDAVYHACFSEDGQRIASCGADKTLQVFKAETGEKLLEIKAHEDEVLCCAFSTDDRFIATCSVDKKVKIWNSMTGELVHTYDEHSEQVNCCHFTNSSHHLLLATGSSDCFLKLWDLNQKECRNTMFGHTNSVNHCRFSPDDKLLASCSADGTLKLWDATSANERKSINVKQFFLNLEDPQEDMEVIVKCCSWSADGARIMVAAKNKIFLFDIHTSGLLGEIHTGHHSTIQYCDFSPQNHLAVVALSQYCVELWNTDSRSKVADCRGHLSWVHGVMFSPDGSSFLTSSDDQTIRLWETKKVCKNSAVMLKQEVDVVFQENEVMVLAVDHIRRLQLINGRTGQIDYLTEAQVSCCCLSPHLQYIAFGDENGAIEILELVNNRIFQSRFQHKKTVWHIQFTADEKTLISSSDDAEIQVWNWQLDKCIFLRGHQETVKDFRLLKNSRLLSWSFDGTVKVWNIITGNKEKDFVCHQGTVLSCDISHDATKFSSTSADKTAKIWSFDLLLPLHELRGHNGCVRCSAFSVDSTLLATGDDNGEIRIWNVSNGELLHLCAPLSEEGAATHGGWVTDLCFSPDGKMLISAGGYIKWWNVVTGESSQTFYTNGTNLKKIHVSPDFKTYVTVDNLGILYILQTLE

[4] = molecular target: T3, Sentrin-specific protease 8 (Homo sapiens, UniProt Q96LD8); assay type: functional
T3 sequence (Q96LD8 whole entry): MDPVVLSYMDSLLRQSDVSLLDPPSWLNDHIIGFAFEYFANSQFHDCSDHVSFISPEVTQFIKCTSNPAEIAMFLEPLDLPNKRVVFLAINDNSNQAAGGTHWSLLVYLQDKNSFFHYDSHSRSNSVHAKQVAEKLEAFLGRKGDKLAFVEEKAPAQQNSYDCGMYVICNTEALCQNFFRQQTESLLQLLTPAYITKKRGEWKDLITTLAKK

[5] = molecular target: T3, Sentrin-specific protease 8; assay type: functional; remark: listed apart in the source
[6] = molecular target: T3, Sentrin-specific protease 8; assay: inhibition of human SENP8 cleavage activity – biochemical, luminescence, SAR follow-up (AID 504501); assay type: functional
Caspase-3 = molecular target: T4, Caspase-3 (Homo sapiens, UniProt P42574); assay: SAR Analysis of small molecule inhibitors of Sentrin-specific proteases (SENPs) using a Caspase-3 Selectivity assay. [Related pubchem assays (depositor defined):AID2540, AID2599, AID434973, AID489001]; assay type: functional
T4 sequence (P42574 whole entry): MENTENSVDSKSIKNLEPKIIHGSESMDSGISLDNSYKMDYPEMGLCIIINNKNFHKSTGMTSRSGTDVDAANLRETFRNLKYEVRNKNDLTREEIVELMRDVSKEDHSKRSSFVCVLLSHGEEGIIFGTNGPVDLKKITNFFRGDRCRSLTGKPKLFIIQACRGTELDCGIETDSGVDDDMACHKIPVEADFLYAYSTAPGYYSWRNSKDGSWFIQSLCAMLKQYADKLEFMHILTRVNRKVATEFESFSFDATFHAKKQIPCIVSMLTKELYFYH

[7] = molecular target: T5, Sentrin-specific protease 6 (Homo sapiens, UniProt Q9GZR1); assay: SAR Analysis of small molecule inhibitors of Sentrin-specific protease 6 (SENP6) using a Luminescent assay. [Related pubchem assays (depositor defined):AID2582, AID2599]; assay type: functional
T5 sequence (Q9GZR1 whole entry): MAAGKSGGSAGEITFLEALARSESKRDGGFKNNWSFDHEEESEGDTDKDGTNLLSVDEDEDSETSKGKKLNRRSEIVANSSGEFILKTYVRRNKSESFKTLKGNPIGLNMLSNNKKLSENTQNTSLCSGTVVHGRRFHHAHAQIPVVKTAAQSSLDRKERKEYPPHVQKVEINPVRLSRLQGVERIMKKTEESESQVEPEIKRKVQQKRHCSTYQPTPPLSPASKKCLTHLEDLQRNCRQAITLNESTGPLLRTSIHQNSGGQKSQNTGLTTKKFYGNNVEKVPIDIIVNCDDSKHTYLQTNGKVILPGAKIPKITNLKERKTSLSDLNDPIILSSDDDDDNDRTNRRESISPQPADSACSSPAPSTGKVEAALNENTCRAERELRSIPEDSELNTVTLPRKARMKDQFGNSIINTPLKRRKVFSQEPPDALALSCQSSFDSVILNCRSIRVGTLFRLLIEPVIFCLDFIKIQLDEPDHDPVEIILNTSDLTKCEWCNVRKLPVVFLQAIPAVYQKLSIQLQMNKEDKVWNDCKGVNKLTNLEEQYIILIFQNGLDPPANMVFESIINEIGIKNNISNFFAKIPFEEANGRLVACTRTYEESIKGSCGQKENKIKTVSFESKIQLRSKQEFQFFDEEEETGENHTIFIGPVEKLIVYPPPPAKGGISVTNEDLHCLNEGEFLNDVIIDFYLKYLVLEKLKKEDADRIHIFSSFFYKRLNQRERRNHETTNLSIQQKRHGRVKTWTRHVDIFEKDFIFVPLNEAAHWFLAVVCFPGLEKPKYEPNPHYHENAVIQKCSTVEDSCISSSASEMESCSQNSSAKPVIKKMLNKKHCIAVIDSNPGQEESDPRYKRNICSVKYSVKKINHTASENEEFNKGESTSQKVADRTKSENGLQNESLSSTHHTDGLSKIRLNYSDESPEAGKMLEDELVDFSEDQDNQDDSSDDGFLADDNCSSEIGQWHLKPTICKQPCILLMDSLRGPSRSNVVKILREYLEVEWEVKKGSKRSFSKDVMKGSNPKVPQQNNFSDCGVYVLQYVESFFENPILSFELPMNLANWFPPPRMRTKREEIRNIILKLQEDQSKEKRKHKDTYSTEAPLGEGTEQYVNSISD

[8] = molecular target: T6, Sentrin-specific protease 7 (Homo sapiens, UniProt Q9BQF6); assay: inhibition of human SENP7 cleavage activity – biochemical, luminescence, SAR follow-up (AID 504497); assay type: functional
T6 sequence (Q9BQF6 whole entry): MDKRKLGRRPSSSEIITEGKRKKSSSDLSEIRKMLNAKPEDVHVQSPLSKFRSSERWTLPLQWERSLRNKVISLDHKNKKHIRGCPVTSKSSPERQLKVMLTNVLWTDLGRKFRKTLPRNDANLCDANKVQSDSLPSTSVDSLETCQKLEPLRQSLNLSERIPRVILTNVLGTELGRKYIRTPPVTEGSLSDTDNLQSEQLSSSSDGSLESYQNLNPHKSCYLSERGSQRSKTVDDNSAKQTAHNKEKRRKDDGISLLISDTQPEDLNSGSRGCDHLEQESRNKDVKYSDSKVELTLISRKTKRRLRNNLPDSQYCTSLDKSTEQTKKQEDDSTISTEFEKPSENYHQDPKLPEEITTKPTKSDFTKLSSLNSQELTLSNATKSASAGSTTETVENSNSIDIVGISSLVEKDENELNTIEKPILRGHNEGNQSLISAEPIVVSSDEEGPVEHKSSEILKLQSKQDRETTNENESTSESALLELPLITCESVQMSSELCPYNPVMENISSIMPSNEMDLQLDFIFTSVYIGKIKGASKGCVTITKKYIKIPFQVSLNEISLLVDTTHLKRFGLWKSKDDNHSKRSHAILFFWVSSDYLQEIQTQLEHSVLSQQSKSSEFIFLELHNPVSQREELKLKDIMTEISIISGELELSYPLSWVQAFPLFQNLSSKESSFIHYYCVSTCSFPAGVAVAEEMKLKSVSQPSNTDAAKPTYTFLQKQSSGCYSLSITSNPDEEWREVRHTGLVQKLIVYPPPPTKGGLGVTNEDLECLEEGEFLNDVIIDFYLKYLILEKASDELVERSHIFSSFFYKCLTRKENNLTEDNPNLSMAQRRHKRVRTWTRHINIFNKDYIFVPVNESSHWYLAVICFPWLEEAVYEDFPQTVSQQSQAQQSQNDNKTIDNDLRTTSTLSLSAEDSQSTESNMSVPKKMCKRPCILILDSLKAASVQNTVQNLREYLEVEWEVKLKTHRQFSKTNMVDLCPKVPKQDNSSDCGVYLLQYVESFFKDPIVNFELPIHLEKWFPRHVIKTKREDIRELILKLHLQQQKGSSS

[9] = molecular target: Ras and Rab interactor 1/Tyrosine-protein kinase ABL1 (Homo sapiens, UniProt P00519+Q13671); assay type: functional;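 note: biochemical TR-FRET dose-response test measuring inhibition of binding between Rin1 and Abl proteins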
Chain of Ras and Rab interactor 1/Tyrosine-protein kinase ABL1 (P00519 whole entry): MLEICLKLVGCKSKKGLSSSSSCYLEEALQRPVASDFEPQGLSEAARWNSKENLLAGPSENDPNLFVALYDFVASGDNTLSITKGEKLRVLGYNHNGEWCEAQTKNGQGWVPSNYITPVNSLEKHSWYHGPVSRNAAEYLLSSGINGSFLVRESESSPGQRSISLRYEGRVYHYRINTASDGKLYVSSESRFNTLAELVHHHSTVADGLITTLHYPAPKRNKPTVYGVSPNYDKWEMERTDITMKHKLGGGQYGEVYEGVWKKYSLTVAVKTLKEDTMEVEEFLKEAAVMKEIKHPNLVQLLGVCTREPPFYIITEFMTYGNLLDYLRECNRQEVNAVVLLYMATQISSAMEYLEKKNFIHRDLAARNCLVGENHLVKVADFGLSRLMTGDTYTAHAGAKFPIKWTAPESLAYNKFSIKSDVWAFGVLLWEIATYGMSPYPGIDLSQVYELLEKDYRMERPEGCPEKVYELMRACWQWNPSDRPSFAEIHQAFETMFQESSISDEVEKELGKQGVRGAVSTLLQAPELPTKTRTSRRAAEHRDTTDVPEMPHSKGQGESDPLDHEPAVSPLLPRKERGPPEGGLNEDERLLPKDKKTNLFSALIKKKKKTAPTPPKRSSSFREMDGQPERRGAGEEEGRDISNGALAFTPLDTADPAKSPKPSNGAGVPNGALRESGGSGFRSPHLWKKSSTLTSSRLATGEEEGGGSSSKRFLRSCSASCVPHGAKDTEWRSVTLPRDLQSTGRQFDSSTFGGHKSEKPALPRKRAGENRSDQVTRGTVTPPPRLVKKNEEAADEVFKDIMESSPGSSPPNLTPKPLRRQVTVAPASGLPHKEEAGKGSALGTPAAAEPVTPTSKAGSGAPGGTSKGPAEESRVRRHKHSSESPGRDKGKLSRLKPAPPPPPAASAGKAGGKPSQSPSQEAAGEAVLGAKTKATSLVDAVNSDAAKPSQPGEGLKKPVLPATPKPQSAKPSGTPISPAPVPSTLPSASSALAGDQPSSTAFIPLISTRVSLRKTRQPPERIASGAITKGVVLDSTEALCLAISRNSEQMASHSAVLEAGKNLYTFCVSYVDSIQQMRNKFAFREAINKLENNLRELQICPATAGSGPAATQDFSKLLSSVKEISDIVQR
Chain of Ras and Rab interactor 1/Tyrosine-protein kinase ABL1 (Q13671 whole entry): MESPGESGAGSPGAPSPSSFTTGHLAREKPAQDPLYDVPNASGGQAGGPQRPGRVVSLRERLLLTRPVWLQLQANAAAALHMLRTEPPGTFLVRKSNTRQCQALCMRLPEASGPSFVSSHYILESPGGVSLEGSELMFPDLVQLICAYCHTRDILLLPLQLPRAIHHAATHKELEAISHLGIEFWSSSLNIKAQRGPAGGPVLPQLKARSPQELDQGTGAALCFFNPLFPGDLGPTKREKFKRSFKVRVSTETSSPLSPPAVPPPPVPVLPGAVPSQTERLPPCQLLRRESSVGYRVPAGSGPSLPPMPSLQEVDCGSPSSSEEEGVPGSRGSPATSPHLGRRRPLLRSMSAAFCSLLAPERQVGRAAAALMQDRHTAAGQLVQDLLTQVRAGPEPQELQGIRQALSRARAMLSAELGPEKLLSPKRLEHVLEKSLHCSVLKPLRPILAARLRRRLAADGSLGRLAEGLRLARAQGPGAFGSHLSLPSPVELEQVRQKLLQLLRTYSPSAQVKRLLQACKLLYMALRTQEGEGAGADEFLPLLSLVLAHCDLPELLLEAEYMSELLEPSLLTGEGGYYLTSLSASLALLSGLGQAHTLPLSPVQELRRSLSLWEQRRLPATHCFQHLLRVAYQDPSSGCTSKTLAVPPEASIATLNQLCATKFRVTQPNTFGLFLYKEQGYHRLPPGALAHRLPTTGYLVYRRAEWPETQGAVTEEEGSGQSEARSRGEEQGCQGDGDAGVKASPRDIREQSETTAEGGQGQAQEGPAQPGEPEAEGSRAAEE

[10] = test system: Streptococcus sp. 'group A'; assay: Streptococcus pyogenes SK(-)GAS viability under kanamycin – luminescence, BacTiterGlo, confirmation, counter-screen for streptokinase expression inhibitor project, dose response (AID 1900); assay type: functional, organism-based
Streptococcus = assay: GAS UMAA2166 growth inhibition – luminescence, BacTiterGlo, counter-screen for streptokinase expression inhibitor project, dose response (AID 1915); assay type: functional, organism-based;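 note: potency for reduction of bacterial viability or growth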
[11] = Luminescence Cell-Based Dose Retest to Confirm Inhibitors of Cancer Stem Cells. [Related pubchem assays (depositor defined):AID2717, AID2721]; assay type: functional; details: Homo sapiens
[12] = molecular target: DNA (cytosine-5)-methyltransferase 1 (Homo sapiens, UniProt P26358); assay: inhibition of DNA methylation by DNMT1 – biochemical, fluorescent molecular beacon, confirmation (AID 602386); assay type: functional
Chain of DNA (cytosine-5)-methyltransferase 1 (P26358 whole entry): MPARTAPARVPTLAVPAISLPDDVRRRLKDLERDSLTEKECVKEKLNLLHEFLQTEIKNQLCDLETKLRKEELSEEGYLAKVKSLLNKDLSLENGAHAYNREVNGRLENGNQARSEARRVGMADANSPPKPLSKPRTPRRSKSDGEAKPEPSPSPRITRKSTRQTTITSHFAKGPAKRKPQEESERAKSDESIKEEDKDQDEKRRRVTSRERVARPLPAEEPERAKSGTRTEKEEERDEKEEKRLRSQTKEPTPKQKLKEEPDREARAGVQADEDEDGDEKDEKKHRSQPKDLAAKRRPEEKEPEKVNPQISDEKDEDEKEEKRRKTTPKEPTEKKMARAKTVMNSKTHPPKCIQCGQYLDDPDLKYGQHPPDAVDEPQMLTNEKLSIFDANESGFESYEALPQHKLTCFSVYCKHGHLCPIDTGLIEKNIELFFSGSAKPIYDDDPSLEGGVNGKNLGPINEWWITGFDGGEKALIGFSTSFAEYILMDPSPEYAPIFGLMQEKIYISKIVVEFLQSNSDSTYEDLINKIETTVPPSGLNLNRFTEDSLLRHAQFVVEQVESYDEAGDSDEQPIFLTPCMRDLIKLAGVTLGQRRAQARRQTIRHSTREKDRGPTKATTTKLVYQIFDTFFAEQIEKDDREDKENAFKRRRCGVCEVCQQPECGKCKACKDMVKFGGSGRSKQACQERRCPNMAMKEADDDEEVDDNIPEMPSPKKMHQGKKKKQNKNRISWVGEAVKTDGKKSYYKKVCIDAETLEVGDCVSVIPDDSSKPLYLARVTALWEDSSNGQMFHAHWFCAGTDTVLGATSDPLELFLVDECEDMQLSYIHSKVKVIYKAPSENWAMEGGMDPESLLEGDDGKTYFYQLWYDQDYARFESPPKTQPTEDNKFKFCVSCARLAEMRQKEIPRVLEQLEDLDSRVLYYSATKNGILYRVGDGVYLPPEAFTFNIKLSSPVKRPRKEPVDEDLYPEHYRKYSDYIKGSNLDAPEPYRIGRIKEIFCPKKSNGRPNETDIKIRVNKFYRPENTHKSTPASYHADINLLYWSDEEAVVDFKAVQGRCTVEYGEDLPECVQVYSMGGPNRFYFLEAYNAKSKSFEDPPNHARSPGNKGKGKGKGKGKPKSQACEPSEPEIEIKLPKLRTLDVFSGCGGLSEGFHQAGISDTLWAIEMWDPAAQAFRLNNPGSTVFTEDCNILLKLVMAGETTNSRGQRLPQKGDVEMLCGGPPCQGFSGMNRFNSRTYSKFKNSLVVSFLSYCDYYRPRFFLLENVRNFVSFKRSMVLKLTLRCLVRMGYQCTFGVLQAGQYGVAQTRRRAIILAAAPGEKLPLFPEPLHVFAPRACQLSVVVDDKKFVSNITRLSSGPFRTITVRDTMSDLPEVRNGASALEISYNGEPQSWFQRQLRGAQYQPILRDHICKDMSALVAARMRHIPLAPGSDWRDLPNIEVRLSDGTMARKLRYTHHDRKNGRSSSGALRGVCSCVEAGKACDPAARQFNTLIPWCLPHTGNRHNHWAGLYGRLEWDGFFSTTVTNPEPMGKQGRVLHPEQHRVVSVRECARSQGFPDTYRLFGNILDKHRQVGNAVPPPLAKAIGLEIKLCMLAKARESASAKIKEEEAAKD

Protein Wnt-3a = Protein Wnt-3a (Mus musculus, UniProt P27467); assay: antagonism of Wnt3a pathway luciferase reporter – Wnt-LIGHT cells, luminescence, selectivity assay for Gli-SUFU antagonist project, dose response (AID 651570); assay type: functional; details: read-out: IC50_Mean;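 note: Wnt-LIGHT reporter cells stimulated with conditioned medium from Wnt3a-producing cells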
Chain of Protein Wnt-3a (P27467 whole entry): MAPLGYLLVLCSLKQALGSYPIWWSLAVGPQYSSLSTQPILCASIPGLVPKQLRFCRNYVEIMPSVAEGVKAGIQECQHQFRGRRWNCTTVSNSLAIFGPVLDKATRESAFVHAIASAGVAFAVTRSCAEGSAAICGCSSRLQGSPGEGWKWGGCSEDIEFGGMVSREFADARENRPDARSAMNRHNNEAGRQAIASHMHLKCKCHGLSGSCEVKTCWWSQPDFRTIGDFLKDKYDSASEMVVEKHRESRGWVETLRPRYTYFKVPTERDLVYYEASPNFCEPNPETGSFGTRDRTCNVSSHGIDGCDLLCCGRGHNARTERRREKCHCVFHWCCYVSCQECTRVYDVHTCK

Compound: Cc1ccc2nc3c(cc(C(=O)NCc4ccccc4)c(=N)n3CCCn3ccnc3)c(=O)n2c1
- IC50 [1]: 29.8 µM (inactive)
- AC50 [2]: 48 µM (active)

Compound: CC1=NN(c2ccc(C(F)(F)F)cn2)C(=O)C1
- IC50 [3]: 17.7 µM (active)
- IC50 [4]: 10.1 µM (active)
- IC50 [5]: 15.6 µM (active)

Compound: COC(=O)c1nn(-c2ccccc2)c2c1C(c1ccc(OC)cc1)(C(F)(F)F)N/C(=N\c1ccc(C)cc1)O2 (stereo not given)
- IC50 [6]: > 99 µM (inactive)
- IC50 (Caspase-3): > 99 µM (inactive)
- IC50 [7]: > 99 µM (inactive)
- IC50 [8]: > 99 µM (inactive)

Compound: COc1cccc2sc(NC(=O)c3ccc(S(=O)(=O)N(C)C4CCCC4)cc3)nc12
- IC50 [6]: > 99 µM (inactive)
- IC50 (Caspase-3): > 99 µM (inactive)
- IC50 [7]: > 99 µM (inactive)
- IC50 [8]: > 99 µM (inactive)

Compound: Cc1ccc(N/N=C/c2c[nH]c3ccccc23)cc1
- IC50 [6]: 7.41 µM (active)
- IC50 (Caspase-3): 6.02 µM (active)
- IC50 [7]: 6.76 µM (active)
- IC50 [8]: 3.21 µM (active)

Compound: CSCCC(c1nnnn1C1CCCCC1)N1CCC(n2c(O)nc3ccccc32)CC1 (stereo not given)
- IC50 [9]: 6.82 µM (active)

Compound: COc1ccccc1CN1C[C@@H]2C[C@@H](c3ccc4nsnc4c3)N3CCC[C@@]23C1=O
- IC50 [9]: 22.3 µM (inactive)

Compound: CC(C)COc1ccc(-c2nn(-c3ccccc3)cc2/C=C2/SC(=S)N(CC(=O)O)C2=O)cc1
- EC50 [10]: 2.85 µM (active)
- EC50 (Streptococcus): 4.38 µM (active)
- AC50 [11]: 2.87 µM (active)
- IC50 [12]: 5.58 µM (active)

Compound: CCn1c(/C=C/Nc2ccccc2)[n+](CC)c2cc(Cl)ccc21
- IC50 (Protein Wnt-3a): 26.3 µM (inactive)

Compound: COc1ccc(NC(=S)N2CCC(Cc3ccccc3)CC2)cc1
- IC50 (Protein Wnt-3a): 25.5 µM (inactive)
